Activity calls are given as the source filed them. The calls are words filed in the database; no cut-off is given here.
Columns and labels:
[1] = system: Escherichia coli; experiment: Antibacterial activity against Escherichia coli at 100 ug/disk; format: functional
[2] = system: Escherichia coli; experiment: Antibacterial activity against Escherichia coli at 50 ug/disk; format: functional

| SMILES | Activity [1] | Activity [2] | zone of inhibition at 100 µg/disc ([1]; read-out: IZ) | zone of inhibition at 50 µg/disc ([2]; read-out: IZ) |
| --- | --- | --- | --- | --- |
| C=C1[C@@]2(C)CCC3=CC(=O)O[C@]3(OC)[C@H](C2)C[C@@]1(C)O | inactive | inactive |  |  |
| C=C1C[C@H]2C[C@](C)(CCC3=CC(=O)O[C@@]32OC)[C@]1(C)O [HYRTIOSENOLIDE A] |  |  | 7 mm | 7 mm |
